Earlier results in patent US10952973B2, “Production method of pregabalin-containing composition and pregabalin-containing composition” (NITTO DENKO CORPORATION, priority 2018, dated 2021).

SMILES | pKa of the acid aqueous solution (23° C., 0.35 mol/L aqueous solution) | acid dissociation constant (pKa) of the carboxyl group (carboxyl group of pregabalin)
CCCCCCCCCCCCOS(=O)(=O)O [dodecylsulfuric acid] | −3 | 
CC(C)C[C@H](CN)CC(=O)O [pregabalin, Pregabalin] |  | about 4.2
